Experimental data from patent US20180141939A1, “SOLID FORMS OF A BET INHIBITOR” (Gilead Sciences, Inc., priority 2016, published 2018).
Values after ≈ are worked out from the molar mass of the structure shown.

Legend:
Assay type in all cases: physicochemical
[1] = Ionization constants (pKa); conditions: multiple ionization constants; read-out: weak base pKa values
physchem = experiment: physchem
[2] = Chemical stability in aqueous solutions as a function of pH and temperature; conditions: for degradation in aqueous solution: about 20 weeks
Method: (FIG. 88(a)), or about 40° C. (FIG. 88(b)) over a period of about 20 weeks.

[3] = Susceptibility to oxidation in solution as a function of pH; conditions: about 40° C., about 14 days
Excerpt: In the presence of iron (II) ions, formation of a complex with iron is observed at high pH (FIG. 90). This complex can be reversed to yield Compound I by addition of a strong acid.

[4] = increased degradation at higher pH

Structure (SMILES): Cc1noc(C)c1-c1cc(C(O)(c2ccccn2)c2ccccn2)c2nc(C3CC3)[nH]c2c1 [Compound I, (2-cyclopropyl-6-(3,5-dimethylisoxazol-4-yl)-1H-benzo[d]imidazol-4-yl)di(pyridin-2-yl)methanol]
- pKa [1]: 2.9
- solubility (physchem; pH 2.4, aqueous buffer): > 100000 µg/mL
- solubility (physchem; pH 8, aqueous buffer): 9.2 µg/mL (≈ 21 µM)
- degradation in aqueous solution ([2]; about pH 1 to about pH 11, about 25° C.): no significant degradation
- degradation in aqueous solution ([2]; about pH 1 to about pH 11, about 40° C.): no significant degradation
- degradation in aqueous solution ([2]; about pH 1 to about pH 11, about 60° C., exception pH 5 (small amount of aluminum complex)): no significant degradation
- susceptibility to acid- or base-catalyzed degradation ([2]; aqueous solutions as a function of pH and temperature): not susceptible to acid- or base-catalyzed degradation
- degradation in solution containing polysorbate 80 [3]: No significant degradation
- degradation in solution containing radical initiator [3]: No significant degradation
- degradation in solution containing hydrogen peroxide [3, 4]: loss of Compound I
- degradation in solution containing iron (II) ions [3, 4]: loss of Compound I
